Key:
Experiment in all cases: relative viability (nuclei count vs DMSO), 5 days (fraction); higher = more cells survive
NVP-TAE684 + OSI-027 = compound: COc1cc(N2CCC(N3CCN(C)CC3)CC2)ccc1Nc1ncc(Cl)c(Nc2ccccc2S(=O)(=O)C(C)C)n1 [NVP-TAE684] + COc1cccc2cc(-c3nc([C@H]4CC[C@H](C(=O)O)CC4)n4ncnc(N)c34)[nH]c12 [OSI-027] (partner 0.5 µM)
Method in brief: (§1)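 For relative viability, nuclei counts in treated wells were divided by those in vehicle wells. Lung cancer cell lines had been pin-tool dosed in 1536-well plates the day after seeding and cultured for 5 days, then fixed and stained in one step (final 0.05% Triton X-100, 1% formaldehyde, 1 ug/ml Hoechst) and imaged at 4×. Doses were one drug alone or a fixed anchor-drug dose plus five library-drug doses (not always all listed) in √10 steps, and values are duplicate-plate medians.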

NVP-TAE684 + Palbociclib = compound: COc1cc(N2CCC(N3CCN(C)CC3)CC2)ccc1Nc1ncc(Cl)c(Nc2ccccc2S(=O)(=O)C(C)C)n1 [NVP-TAE684] + CC(=O)c1c(C)c2cnc(Nc3ccc(N4CCNCC4)cn3)nc2n(C2CCCC2)c1=O [Palbociclib] (partner 0.5 µM)
Method in brief: as §1

CUDC-101 + Lapatinib = compound: C#Cc1cccc(Nc2ncnc3cc(OC)c(OCCCCCCC(=O)NO)cc23)c1 [CUDC-101] + CS(=O)(=O)CCNCc1ccc(-c2ccc3ncnc(Nc4ccc(OCc5cccc(F)c5)c(Cl)c4)c3c2)o1 [Lapatinib] (partner 2 µM)
Method in brief: as §1

[1] = compound: C1=CC=C2C(=C1)N=C(S2)C(C#N)C3=NC(=NC=C3)NCCC4=CN=CC=C4 + CC(C)C[C@H](NC(=O)[C@H](Cc1ccccc1)NC(=O)c1cnccn1)B(O)O [Bortezomib] (partner 0.002 µM)
Method in brief: as §1

Cell Line	relative viability (NVP-TAE684 + OSI-027; first compound 0.2 µM)	relative viability (NVP-TAE684 + OSI-027; first compound 0.6325 µM)	relative viability (NVP-TAE684 + OSI-027; first compound 2 µM)	relative viability (NVP-TAE684 + Palbociclib; first compound 0.2 µM)	relative viability (NVP-TAE684 + Palbociclib; first compound 0.6325 µM)	relative viability (NVP-TAE684 + Palbociclib; first compound 2 µM)	relative viability (CUDC-101 + Lapatinib; first compound 0.01 µM)	relative viability (CUDC-101 + Lapatinib; first compound 0.03162 µM)	relative viability (CUDC-101 + Lapatinib; first compound 0.1 µM)	relative viability (CUDC-101 + Lapatinib; first compound 0.3162 µM)	relative viability (CUDC-101 + Lapatinib; first compound 1 µM)	relative viability ([1]; first compound 0.005 µM)	relative viability ([1]; first compound 0.01581 µM)	relative viability ([1]; first compound 0.05 µM)	relative viability ([1]; first compound 0.1581 µM)	relative viability ([1]; first compound 0.5 µM)
201T	0.762	0.732	0.474	0.358	0.333	0.312	1.03	1.02	0.943	1.08	0.872	1.1	1.09	1.09	1.09	1.11
A549							0.975	1.01	0.946	0.821	0.386					
A-427	0.548	0.396	0.285	0.539	0.527	0.431	0.933	1.04	1	0.914	1.01	0.934	1.07	0.968	1.02	0.974
ABC-1	0.393	0.419	0.179	0.635	0.759	0.363	1.06	1.05	1.21		1.26	0.348	0.292	0.262	0.313	0.387
BEN	0.27	0.311	0.265	0.486	0.479	0.495	0.925	0.628	0.707	0.739	0.539	0.699	0.818	0.869	1.02	0.893
Calu-6							1.08	1.12	1.09	0.791	0.658	0.943	0.946	0.912	1.02	0.915
ChaGo-K-1	0.589	0.546	0.416	1.04		0.7						0.87		0.936	1.1	0.845
EBC-1							0.224	0.212	0.214	0.215	0.196	0.52	0.545	0.544	0.666	0.504
IA-LM							0.999	0.666	0.605	0.653	0.305		0.844	0.697	0.839	0.855
LCLC-103H	0.445	0.467	0.372	0.482	0.447	0.413						0.96	0.984	1.07	1.23	0.91
LK-2	0.178	0.17	0.168	0.614	0.756	0.296	0.981	0.888	0.973	0.887	0.559					
NCI-H358	0.718	0.616	0.15	0.125	0.121	0.0895	0.553	0.397	0.517	0.489	0.29					
NCI-H441	0.581	0.626	0.379	0.182	0.192	0.154							0.414	0.679	0.912	0.743
NCI-H522		0.702	0.554	0.973	0.99	0.893										
NCI-H596	0.903	0.689	0.509				1.04	1.04	1.03	1.08	0.982	0.72	0.969	0.938	1.43	1.16
NCI-H1299							0.97	0.917	0.883	0.973	0.857	1.08	1.08	1.04	1.01	1.05
NCI-H1395	0.712	0.482	0.567	0.618	0.639	0.54	1.04	1.13	1.05	0.862	0.661					
NCI-H1563	0.736	0.678	0.596				0.846	0.814	1.17	1.13	0.877	0.808	0.769	0.886	0.873	0.798
NCI-H1623	0.337	0.402	0.34													
NCI-H1648	0.255	0.226	0.216	0.241	0.295	0.202										
NCI-H1703							1.31	1.03	1.07	1.18	0.765	0.318	0.416	0.307	0.33	0.466
NCI-H1793	0.267	0.274	0.204	0.297	0.302	0.239	0.813	0.63	0.731	0.718	0.485					
NCI-H1944	0.428	0.36	0.278	0.313	0.321	0.236	0.777	0.747	0.799	0.709	0.5					
NCI-H2170	0.703	0.579	0.63	0.33	0.382	0.375	0.27	0.266	0.297	0.227	0.232					
NCI-H2342		0.585	0.34	0.499	0.459	0.457										
SK-MES-1	0.447	0.529	0.352	0.347	0.313	0.296	0.466	0.462	0.451	0.461	0.388					
SW 900	0.536	0.425	0.703	0.576	0.456	0.43										

Reference: the supplement of paper PMC10307832
